Test results reported in patent publication US8518956B2, “1-(1-(2-ethoxyethyl)-3-ethyl-7-(4-methylpyridin-2-ylamino)-1H-pyrazolo[4,3-d]pyrimidin-5-yl) piperidine-4-carboxylic acid and salts thereof” (priority 2005, dated 2013).

Key:
Format in all cases: biochemical
[1] = biological target: T1, PDE5 enzyme (Homo sapiens, UniProt O76074); assay: Method 1A: Alternative Human Platelet PDE5 Enzyme Inhibition Scintillation Proximity Assay; conditions: METHOD 1a: PDE5 IC50, Table D, WO2004096810 examples
T1 construct: The PDE5 enzyme isolated from human platelets; from tissue; host or cells: human platelets
Description: Method 1A: Alternative Human Platelet PDE5 Enzyme Inhibition Scintillation Proximity Assay
PDE5 IC50 Assay: 96-Well Microtiter Plate Format
• Buffer A: 20 mM Tris-HCl, 5 mM MgCl2, pH 7.4 • Buffer B: 2 mg/ml BSA in Buffer A (enzyme buffer) • cGMP substrate: Final concentration of 50 nM in assay The amount of ^3H-labeled substrate added depends upon the specific activity of [^3H]cGMP, and it is diluted in Buffer A. • PDE enzyme: Prepared in Buffer B. The dilution factor is determined by enzyme activity. • SPA beads: 4 mg/ml suspension prepared in dH2O.
Stocks of standard and test compound are prepared at 2 mM in 100% DMSO. […] 27 μl of Buffer A are added to the wells of the assay plates. From the dilution plate, 3 μl of diluted compound is delivered in duplicate or 3 μl of 100% DMSO (for positive and negative controls) are added. 30 μl of enzyme are added. For the negative control wells, Buffer B is substituted in place of the enzyme. 30 μl of labeled substrate are added to all wells.
After incubating for 60 minutes at room temperature, the reaction is stopped with the addition of 30 μl of the yttrium silicate beads. These beads are dense and require constant agitation while being added to the plate. The plates are sealed and shaken on a plate shaker for fifteen minutes to allow the beads to bind the GMP product.
After allowing the beads to settle for 30 minutes, plates are read on a NXT TopCount scintillation counter and the data are analyzed as follows. Percent inhibition values are calculated using the means of the 0% and 100% controls on each plate. The estimates of the 4-parameters of the logistic, sigmoid dose-response model are then calculated using the well-level percent inhibition value for the compound.

[2] = biological target: PDE6 enzyme; assay: Method 2A: Alternative Human Retina PDE6 Enzyme Inhibition Scintillation Proximity Assay (SPA); conditions: Table F, WO2004096810 examples
Description: Lift the retina with care and locate the optic nerve. Cut through the optic nerve and transfer the retina to a small dish containing a few ml of homogenisation buffer. Gently float the retina out on the surface of the buffer and remove any obvious pigmented material from the iris. Place the retina in a second dish with clean buffer to remove last traces of pigment and then transfer to a 50 ml Corning Costar centrifuge tube (Sigma) and keep on ice. • PDE6 Isolation and Purification from Retina: Allow 2 mls of the homogenisation buffer per bovine retina and 1 ml per retina for dog and human. Homogenise using hand-held homogeniser 3×5 second bursts cooling on ice between each burst. Filter homogenate through two layers of surgical gauze. Spin at 100,000 g for 60 minutes at 4° C. […] Run through FPLC (Pharmacia FPLC LKB/FRAC-100, Pharmacia) or aliquot and store in liquid nitrogen as needed. Method 2A: Alternative Human Retina PDE6 Enzyme Inhibition Scintillation Proximity Assay (SPA)
The inhibition of PDE6 enzyme activity by a test compound also can be measured in accordance with the in vitro assay of Method 1A, but instead using semi-purified PDE6 enzyme isolated from human, bovine or canine retina in place of PDE5 enzyme. […] [3H]GMP binds to yttrium silicate SPA beads and is detected by scintillation counting.

[3] = biological target: T2, PDE11 enzyme (Homo sapiens, UniProt Q9HCR9, DUP921-921); assay: Method 3: Human Recombinant PDE11 Enzyme Inhibition Scintillation Proximity Assay (SPA); conditions: Table F, WO2004096810 examples; read-out: METHOD 3: PDE11 IC50
T2 construct: FLAG (N); made in house; host or cells: Sf9 insect cells (baculovirus, pFastBac)
T2 sequence (Q9HCR9 with tags, fused parts or gaps DUP921-921 limits assumed): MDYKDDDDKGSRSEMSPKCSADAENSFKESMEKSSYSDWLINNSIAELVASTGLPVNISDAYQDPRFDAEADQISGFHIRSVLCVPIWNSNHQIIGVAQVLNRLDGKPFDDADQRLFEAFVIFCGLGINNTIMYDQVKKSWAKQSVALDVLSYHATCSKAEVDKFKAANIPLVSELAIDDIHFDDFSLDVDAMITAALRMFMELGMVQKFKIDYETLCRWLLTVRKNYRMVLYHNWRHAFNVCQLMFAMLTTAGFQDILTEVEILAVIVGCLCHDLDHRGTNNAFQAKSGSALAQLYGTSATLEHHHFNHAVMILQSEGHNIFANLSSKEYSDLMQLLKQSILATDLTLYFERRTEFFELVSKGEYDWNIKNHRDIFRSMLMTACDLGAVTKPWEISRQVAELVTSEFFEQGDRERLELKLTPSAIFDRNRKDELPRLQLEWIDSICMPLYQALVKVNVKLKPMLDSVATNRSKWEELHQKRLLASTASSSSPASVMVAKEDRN
Description: Method 3: Human Recombinant PDE11 Enzyme Inhibition Scintillation Proximity Assay (SPA)
PDE11 Expression and Purification:
(§1) Incubate at 27° C. with 220 rpm shaking for 48 hours. Harvest the infected cells by pelleting at 2000 rpm for 10 minutes at 4° C. Store the infected cell pellet at −80° C. until ready for purification. Resuspend the thawed cell pellets to 1×10^7 cells/ml (=20 ml buffer consisting of 20 mM Hepes (pH7.2), 1 mM EDTA, 20 mM sucrose, 150 mM NaCl and protease inhibitor tablets). Mix thoroughly and allow to stand on ice for 10 minutes. Sonicate for 5×5 seconds, on ice. Spin the mixture at 12,000 rpm for 10 minutes at 4° C. in SS34. Store the insoluble pellet at −80° C., and proceed to the purification of the soluble material. • (b) Purification: Prepare the column (1.0 cm diameter, Kontes) by rinsing the empty column twice with TBS. Then mix beads (Anti-FLAG M2 Agarose, Sigma) with TBS and add to the column—allow the beads to settle. Wash the column with 3 column volumes of 0.1M glycine (pH3.5). […] Apply the extract to the column and allow the extract to enter by gravity flow. Reapply the flow-through. Wash the column with 15 column volumes of TBS. Elute the protein with 5×1 ml aliquots of FLAG peptide (Sigma) (i.e., 100 ug/ml in TBS). Elute the remaining protein with 1 ml 0.1M glycine, and immediately add 25 ul 1M Tris pH8 to neutralize. Method 3A: Alternative Human Recombinant PDE11 Enzyme Inhibition Scintillation Proximity Assay (SPA)

[4] = biological target: T2, PDE11 enzyme; assay: Method 3A: Alternative Human Recombinant PDE11 Enzyme Inhibition Scintillation Proximity Assay (SPA); conditions: Table F, WO2004096810 examples
Description: as §1

| Structure (SMILES) | IC50 [1] [nM] | IC50 [2] [nM] | IC50 [3] [nM] | IC50 [4] [nM] |
| --- | --- | --- | --- | --- |
| CCc1nn(CCOCC(F)(F)F)c2c(Nc3cc(C)ncn3)nc(N3CCC(C(=O)O)CC3)nc12 [WO2004096810 Example 263] | 0.0197 | 30.6 | 316 | 384 |
| Cc1cc(Nc2nc(N3CCC(C(=O)O)CC3)nc3c(C)nn(CCOCC(F)(F)F)c23)ncn1 [WO2004096810 Example 262] | 0.0755 | 66.3 | 471 | 608 |
| Cc1ccnc(Nc2nc(N3CCC(C(=O)O)CC3)nc3c(C)nn(CCOCC(F)(F)F)c23)c1 [WO2004096810 Example 261] | 0.115 | 110 | 426 | 585 |
